Assay: wn = mass fraction of the nth substance listed
Settings: 298.15 K, 101 kPa, Liquid; for viscosity: Cone and plate viscometry; for mass density: Vibrating tube method

CC#N [acetonitrile] + CCOC(=O)OCC
viscosity (w1 = 1): 0.34 mPa·s
mass density (w1 = 1): 776.85 kg/m3

CCOC(=O)OCC [diethyl carbonate] + CC#N
viscosity (w2 = 0): 0.74 mPa·s
viscosity (w2 = 0.25): 0.65 mPa·s
viscosity (w2 = 0.5): 0.57 mPa·s
viscosity (w2 = 0.75): 0.45 mPa·s
mass density (w2 = 0): 969.17 kg/m3
mass density (w2 = 0.25): 921.12 kg/m3
mass density (w2 = 0.5): 873.25 kg/m3
mass density (w2 = 0.75): 824.87 kg/m3

— the NIST ThermoML archive (doi:10.1016/j.fluid.2013.08.022)
